{"source": "patent US20240180802A1", "about": "“USE OF NEUROSPORENE TO PROTECT THE SKIN FROM THE HARMFUL EFFECTS OF BLUE LIGHT” (DEINOVE, priority 2019, published 2024)", "key": {"[1]": {"tested_on": "HaCaT human keratinocytes", "assay": "Detection of ROSs in keratinocytes under irradiation with UVA radiation", "type": "cell-based", "conditions": "1 h pretreatment, neurosporene 0 to 4 μg/ml or bacterial extract 0 to 15 μg/ml; UVA 20 J/cm2; CellROX deep red; FIGS. 1-2", "procedure": "(§1) HaCaT human keratinocytes were seeded into 96-well microplates in a proportion of 10 000 cells/well in DMEM medium supplemented with 10% of FCS (fetal calf serum) and incubated at 37° C. in 5% CO2 and 95% humidity for 24 hours. After this period of recovery, the cells were pretreated with either 43 μg/ml of α-tocopherol or with an increasing range of neurosporene (from 0 to 4 μg/ml) or with an increasing range of bacterial extract comprising neurosporene (from 0 to 15 μg/ml) for one hour. At the end of the pretreatment, 5 μM of “CellROX deep red” (a label which becomes fluorescent in the presence of reactive oxygen species (ROS)) and Hoechst (10 μg/ml) (which becomes fluorescent when it is bound to the DNA in the nucleus) were added to the medium. Immediately afterwards, the cells were treated either with UVA radiation (20 J/cm 2), or with a blue light (460 nm, 150 J/cm 2). The cells were then washed three times in 1×DPBS buffer and observed under a fluorescence microscope (CellInsight CX7, ThermoFisher). The fluorescence signals were then analyzed using the HCS Studio software (ThermoFisher) in order to quantify the ROSs produced in the cytosol."}, "[2]": {"assay": "ABTS radical cation reduction test", "type": "physicochemical", "conditions": "5 min at ambient temperature, expressed as α-tocopherol equivalent, FIG. 7", "quoted_text": "The ABTS test is based on the use of colored cationic radicals. In the presence of a molecule having an antioxidant power, the colored cationic radical is reduced and loses its color. Consequently, the antioxidant power of a molecule can be measured by the decoloration of the radical.\nA solution was prepared by mixing ABTS (7 mM), potassium persulfate (2.45 mM) and water (qs 5 ml) and incubated for 16 hours at ambient temperature in the dark. Next, a range of eight concentrations of neurosporene, lycopene, α-tocopherol, 9Z-β carotene, zeaxanthin, trolox and D-tocotrienol was dispensed into 96-well microplates before adding the ABTS solution prepared above. The microplates were then incubated at ambient temperature for 5 min, and the coloration was then analyzed at 250 nm using a microplate reader."}, "[3]": {"tested_on": "HaCaT human keratinocytes", "assay": "Detection of ROSs in keratinocytes under irradiation with blue light", "type": "cell-based", "conditions": "1 h pretreatment, neurosporene 0 to 4 μg/ml or bacterial extract 0 to 15 μg/ml; blue light 460 nm, 150 J/cm2; CellROX deep red; FIGS. 3-4", "procedure": "as §1"}, "[4]": {"tested_on": "explants of human skin of phototype IV", "assay": "Quantification of the melanin in human skin explants irradiated with blue light", "conditions": "topical refined plant oil with 12.5 ppm neurosporene and 4 ppm other carotenoids, 5 mg/cm2 daily; blue light 447 nm, 202.6 J/cm2; Fontana-Masson staining; p-value<0.01", "quoted_text": "Explants of human skin of phototype IV were placed under culture conditions. After 24 h, three conditions were studied: a nontreated control, a topical treatment with refined plant oil alone or a topical treatment with a preparation of refined plant oil containing neurosporene (12.5 ppm of neurosporene and 4 ppm of a mixture of carotenoids, namely phytoene, lycopene, zeta-carotene, phytofluene and gamma-carotene). The products were applied every day (5 mg/cm 2) for 3 days. Each condition was carried out in triplicate.\nAfter 3 days of pretreatment, a blue light stress was applied by irradiation at the wavelength of 447 nm each day for 3 days, corresponding to a dose of 202.6 J/cm^2. After each irradiation, the explants were again and, depending on the conditions, not treated or treated either with plant oil alone or with the plant oil containing neurosporene.\nThe melanin was then quantified after analysis of images taken with an epifluorescence microscope (Zeiss, Axio Imager Z1, ApoTome, Zen2 software blue edition) and staining according to the Fontana Masson method. The images were then analyzed on ImageJ. The area of melanin staining was standardized by the length of the basal lamina. The experiment was carried out in triplicate for each condition (nontreated, treatment with vegetable oil alone, treatment with vegetable oil enriched in neurosporene)."}, "[5]": {"tested_on": "HaCaT human keratinocytes", "assay": "Wound healing test (scratched keratinocyte monolayer)", "type": "cell-based", "conditions": "neurosporene 0.12 μg/ml; FCS-free DMEM; FIG. 6", "quoted_text": "HaCaT human keratinocytes were seeded into 96-well microplates in a proportion of 33 000 cells/well in DMEM medium supplemented with 10% of FCS and incubated at 37° C. in 5% CO2 and 95% humidity for 24 hours. Once confluence was reached, the cells were washed three times in FCS-free DMEM in order to remove from the wells the growth factors present in the complete medium. The keratinocyte monolayers were then scratched using a “WoundMaker” (Essen Biosciences) which makes it possible to injure cell monolayers in 96-well format. The cells were then washed three times with FCS-free DMEM in order to remove the cell debris. After washing, DMEM medium was added to the wells. EGF (Epidermal growth factor, ng/ml) used as positive control for injury filling or neurosporene (0.12 μg/ml) was added to the wells. The wound healing was observed by phase-contrast microscopy using an “Incucyte ZOOM” (Essen Biosciences), which is an automatic microscope maintained in a CO2 incubator. The images were then processed using the associated software."}, "[6]": {"tested_on": "HaCaT human keratinocytes", "assay": "Assaying of ATP after irradiation with blue light", "type": "cell-based", "conditions": "24 h pretreatment with dry bacterial extract in DMSO containing 0.05 μg/ml neurosporene; blue light 460 nm, 100 J/cm2; ATP standardized by live cells; FIG. 10", "quoted_text": "HaCaT human keratinocytes were seeded into 96-well microplates in a proportion of 20 000 cells/well in DMEM supplemented with 10% of fetal calf serum and incubated at 37° C. in 5% CO2 and 95% humidity for 24 hours. After a period of recovery, the cells were pretreated with a dry bacterial extract taken up in DMSO and containing 0.05 μg/ml of neurosporene and a mixture of carotenoids (phytoene, lycopene, zeta-carotene, phytofluene and gamma-carotene), the neurosporene being the major carotenoid of this extract. The cells were incubated at 37° C. in 5% CO2 and 95% humidity for 24 hours. Immediately afterwards, the cells were irradiated with blue light (460 nm, 100 J/cm 2). The cells were then washed three times in 1×PBS buffer and permeabilized with 2% triton at 25° C. for 20 min. The supernatants were then collected in order to quantify the ATP by luminescence (Invitrogen™ ATP Determination Kit, Molecular Probes™). The amount of ATP per well is standardized by the amount of live cells. Each condition was carried out in triplicate."}}, "data": [{"smiles": "CC(C)=CCC/C(C)=C/C=C/C(C)=C/C=C/C(C)=C/C=C/C=C(C)/C=C/C=C(\\C)CC/C=C(\\C)CCC=C(C)C", "note": "[neurosporene, 7,8-dihydro-ψ,ψ-carotene]", "values": [{"measurement": "antioxidant power against UVA radiation (ROSs produced in the cytosol)", "setting": "[1]", "result": "strong antioxidant power"}, {"measurement": "antioxidant power relative to reference molecule α-tocopherol", "setting": "[2]", "result": "two times greater"}, {"measurement": "antioxidant power against blue light (ROSs produced in the cytosol)", "setting": "[3]", "result": "strong antioxidant power"}, {"measurement": "melanin production induced by blue light, change compared to the control exposed without treatment", "setting": "[4]", "result": "−25", "unit": "%"}, {"measurement": "improvement of wound healing (injury filling by cell confluence) compared to nontreated control", "setting": "[5]", "result": 35, "unit": "%"}, {"measurement": "effect on intracellular ATP reduction induced by blue light", "setting": "[6]", "result": "makes it possible to limit the ATP reduction induced by blue light"}]}]}
